Results as given in patent US11046694B2, “Compounds and methods for treating bacterial infections” (Entasis Therapeutics, Inc., priority 2018, dated 2021).
In brackets after ≈: the same amount, converted by molar mass. Structures can show the parent of a compound that is named as a salt.

Legend:
P. aeruginosa PBP1a = P. aeruginosa PBP1a (Pseudomonas aeruginosa, UniProt Q07806); assay type: biochemical; settings: P. aeruginosa PBP1a 60 nM, BOCILLIN FL 30 nM, pH 7.0
P. aeruginosa PBP3 = P. aeruginosa PBP3 (Pseudomonas aeruginosa, UniProt G3XD46); assay type: biochemical; settings: P. aeruginosa PBP3 60 nM, BOCILLIN FL 30 nM, pH 7.0
Sequence of P. aeruginosa PBP3 (G3XD46 whole entry): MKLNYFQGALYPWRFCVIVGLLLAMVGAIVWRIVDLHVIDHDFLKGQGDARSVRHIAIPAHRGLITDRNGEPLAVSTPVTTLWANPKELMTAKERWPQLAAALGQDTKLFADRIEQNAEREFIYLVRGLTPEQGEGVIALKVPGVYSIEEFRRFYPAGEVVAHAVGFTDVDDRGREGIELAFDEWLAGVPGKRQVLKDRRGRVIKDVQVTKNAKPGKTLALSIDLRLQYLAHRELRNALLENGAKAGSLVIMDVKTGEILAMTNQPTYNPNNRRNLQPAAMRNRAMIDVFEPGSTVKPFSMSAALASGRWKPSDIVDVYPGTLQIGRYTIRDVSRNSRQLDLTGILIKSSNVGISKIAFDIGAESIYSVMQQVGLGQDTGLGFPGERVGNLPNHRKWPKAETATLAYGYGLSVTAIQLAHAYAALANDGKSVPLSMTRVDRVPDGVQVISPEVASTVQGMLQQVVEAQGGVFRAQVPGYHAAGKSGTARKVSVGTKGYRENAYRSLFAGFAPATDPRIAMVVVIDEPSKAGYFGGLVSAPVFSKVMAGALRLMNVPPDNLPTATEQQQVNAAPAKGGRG

A. baumannii (ARC3495) = test: MIC against A. baumannii; settings: Acinetobacter baumannii, read-out: A. baumannii MIC (ARC3495) (mg/L)
[1] = tested on: K. pneumoniae (ATCC700603); test: MIC against K. pneumoniae; settings: Klebsiella pneumoniae, ATCC700603, read-out: K. pneumoniae MIC (ATCC700603)
P. aeruginosa WT (PAO1) = test: MIC, CLSI broth microdilution, P. aeruginosa; assay type: cell-based; settings: Pseudomonas aeruginosa, PAO1; CLSI broth microdilution; read-out: P. aeruginosa WT (PAO1) MIC
E. coli (ATCC25922) = test: MIC against E. coli; settings: Escherichia coli, ATCC25922, read-out: E. coli MIC (ATCC25922) (mg/L)

Sequence of P. aeruginosa PBP1a (Q07806 whole entry): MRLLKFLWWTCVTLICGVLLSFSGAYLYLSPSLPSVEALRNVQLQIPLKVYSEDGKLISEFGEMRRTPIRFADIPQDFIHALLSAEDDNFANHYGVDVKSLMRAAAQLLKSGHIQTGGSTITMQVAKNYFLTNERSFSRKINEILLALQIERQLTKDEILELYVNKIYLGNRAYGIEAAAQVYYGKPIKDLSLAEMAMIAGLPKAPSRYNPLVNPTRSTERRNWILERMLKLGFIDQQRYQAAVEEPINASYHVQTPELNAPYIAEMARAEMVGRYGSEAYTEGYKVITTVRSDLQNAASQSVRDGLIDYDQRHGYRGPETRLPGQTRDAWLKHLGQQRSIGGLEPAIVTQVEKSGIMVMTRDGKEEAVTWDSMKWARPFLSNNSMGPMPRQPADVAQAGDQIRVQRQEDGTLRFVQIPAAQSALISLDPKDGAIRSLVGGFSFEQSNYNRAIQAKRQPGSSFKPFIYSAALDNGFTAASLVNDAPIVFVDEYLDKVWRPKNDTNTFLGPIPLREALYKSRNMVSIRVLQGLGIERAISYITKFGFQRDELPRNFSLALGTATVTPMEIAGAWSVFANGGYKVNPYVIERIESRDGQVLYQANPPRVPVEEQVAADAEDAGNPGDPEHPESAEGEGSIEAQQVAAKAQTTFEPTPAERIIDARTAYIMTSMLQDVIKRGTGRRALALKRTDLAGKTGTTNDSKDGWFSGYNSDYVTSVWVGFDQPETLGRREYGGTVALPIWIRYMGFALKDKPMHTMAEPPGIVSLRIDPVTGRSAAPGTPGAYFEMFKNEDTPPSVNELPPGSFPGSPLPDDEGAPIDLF

| MIC (A. baumannii (ARC3495)) [mg/L] | MIC [1] [µg/mL] | MIC (P. aeruginosa WT (PAO1)) [µg/mL] | MIC (E. coli (ATCC25922)) [mg/L] | SMILES | PBP1a acylation rate, k(on) (M^−1 · s^−1) (P. aeruginosa PBP1a) | PBP3 acylation rate, k(on) (M^−1 · s^−1) (P. aeruginosa PBP3) |
| --- | --- | --- | --- | --- | --- | --- |
| > 16 | > 16 | > 16 | < 8 | CN(C(N)=O)/C(=N\OC(=O)NCCNC(N)=O)[C@@H]1c2c(cnn2C)[C@@H]2CN1C(=O)N2OS(=O)(=O)O [Example 43, (4R,8S)-8-((Z)—N-carbamoyl-N-methyl-N′-(((2-ureidoethyl)carbamoyl)oxy)carbamimidoyl)-1-methyl-6-oxo-4,8-dihydro-1H-4,7-methanopyrazolo[3,4-e][1,3]diazepin-5(6H)-yl hydrogen sulfate] | ** (** represents a k(on) of 100 to 10,000 M^−1 · s^−1) | *** (*** represents a k(on) > 10,000 M^−1 · s^−1) |
| 8 to 16 (≈ 16.9 to 33.7 µM) | > 16 | < 8 | 8 to 16 (≈ 16.9 to 33.7 µM) | CN/C(=N\OCC(=O)NCCCCN)[C@@H]1c2c(cnn2C)[C@@H]2CN1C(=O)N2OS(=O)(=O)O (racemic) [Example 59] | ** (** represents a k(on) of 100 to 10,000 M^−1 · s^−1) | *** (*** represents a k(on) > 10,000 M^−1 · s^−1) |
| 8 to 16 | 8 to 16 | < 8 | 8 to 16 | CN/C(=N\OCC(=O)NCCN)[C@@H]1c2c(cnn2C)[C@@H]2CN1C(=O)N2OS(=O)(=O)O (racemic) [Example 58, (4R,8S)-8-((Z)—N′-(2-((2-aminoethyl)amino)-2-oxoethoxy)-N-methylcarbamimidoyl)-1-methyl-6-oxo-4,8-dihydro-1H-4,7-methanopyrazolo[3,4-e][1,3]diazepin-5(6H)-yl hydrogen sulfate] | * (* represents a k(on) < 100 M^−1 · s^−1) | *** (*** represents a k(on) > 10,000 M^−1 · s^−1) |
| > 16 | > 16 | 8 to 16 (≈ 16.8 to 33.7 µM) | 8 to 16 (≈ 16.8 to 33.7 µM) | CN/C(=N\OC(=O)NC(C)(C)C(=O)O)[C@@H]1c2c(cnn2C)[C@@H]2CN1C(=O)N2OS(=O)(=O)O (racemic) [Example 34] | ** (** represents a k(on) of 100 to 10,000 M^−1 · s^−1) | *** (*** represents a k(on) > 10,000 M^−1 · s^−1) |
| > 16 | > 16 | 8 to 16 | < 8 | CN/C(=N\O)[C@@H]1c2c(cnn2CCNC(C)=O)[C@@H]2CN1C(=O)N2OS(=O)(=O)O [Example 48, (4R,8S)-1-(2-acetamidoethyl)-8-((Z)—N′-hydroxy-N-methylcarbamimidoyl)-6-oxo-4,8-dihydro-1H-4,7-methanopyrazolo[3,4-e][1,3]diazepin-5(6H)-yl hydrogen sulfate] | * (* represents a k(on) < 100 M^−1 · s^−1) | *** (*** represents a k(on) > 10,000 M^−1 · s^−1) |
| 8 to 16 (≈ 16.9 to 33.9 µM) | > 16 | < 8 | 8 to 16 (≈ 16.9 to 33.9 µM) | CN/C(=N\OC(=O)NC1CCNCC1)[C@@H]1c2c(cnn2C)[C@@H]2CN1C(=O)N2OS(=O)(=O)O (racemic) [Example 29] | ** (** represents a k(on) of 100 to 10,000 M^−1 · s^−1) | *** (*** represents a k(on) > 10,000 M^−1 · s^−1) |
| > 16 | > 16 | > 16 | < 8 | CN/C(=N\OC(=O)NCc1cnn(C)c1)[C@@H]1c2c(cnn2C)[C@@H]2CN1C(=O)N2OS(=O)(=O)O (racemic) [Example 15, (4R,8S)-1-methyl-8-((Z)—N-methyl-N′-((((1-methyl-1H-pyrazol-4-yl)methyl)carbamoyl)oxy)carbamimidoyl)-6-oxo-4,8-dihydro-1H-4,7-methanopyrazolo[3,4-e][1,3]diazepin-5(6H)-yl hydrogen sulfate] | ** (** represents a k(on) of 100 to 10,000 M^−1 · s^−1) | *** (*** represents a k(on) > 10,000 M^−1 · s^−1) |
| > 16 | 8 to 16 (≈ 17.9 to 35.8 µM) | 8 to 16 (≈ 17.9 to 35.8 µM) | 8 to 16 (≈ 17.9 to 35.8 µM) | CN/C(=N\OC(=O)NCC(N)=O)[C@@H]1c2c(cnn2C)[C@@H]2CN1C(=O)N2OS(=O)(=O)O (racemic) [Example 23] | ** (** represents a k(on) of 100 to 10,000 M^−1 · s^−1) | *** (*** represents a k(on) > 10,000 M^−1 · s^−1) |
| > 16 | > 16 | 8 to 16 | < 8 | CN/C(=N\OC(=O)NCc1cn(C)[n+](C)c1)[C@@H]1c2c(cnn2C)[C@@H]2CN1C(=O)N2OS(=O)(=O)O [Example 54, 1,2-dimethyl-4-((Z)-3-((4R,8S)-1-methyl-6-oxo-5-(sulfooxy)-4,5,6,8-tetrahydro-1H-4,7-methanopyrazolo[3,4-e][1,3]diazepin-8-yl)-6-oxo-5-oxa-2,4,7-triazaoct-3-en-8-yl)-1H-pyrazol-2-ium] | * (* represents a k(on) < 100 M^−1 · s^−1) | *** (*** represents a k(on) > 10,000 M^−1 · s^−1) |
| 8 to 16 (≈ 16.4 to 32.9 µM) | > 16 | < 8 | < 8 | CN/C(=N\OC(=O)NCC1CCNCC1)[C@@H]1c2c(cnn2C)[C@@H]2CN1C(=O)N2OS(=O)(=O)O (racemic) [Example 28] | ** (** represents a k(on) of 100 to 10,000 M^−1 · s^−1) | *** (*** represents a k(on) > 10,000 M^−1 · s^−1) |
| > 16 | > 16 | 8 to 16 (≈ 15 to 30 µM) | < 8 | CN/C(=N\OCC(=O)NCCCC[C@H](N)C(=O)O)[C@@H]1c2c(cnn2C)[C@@H]2CN1C(=O)N2OS(=O)(=O)O (racemic) [Example 60] | * (* represents a k(on) < 100 M^−1 · s^−1) | *** (*** represents a k(on) > 10,000 M^−1 · s^−1) |
| > 16 | > 16 | 8 to 16 (≈ 15.4 to 30.9 µM) | < 8 | CN/C(=N\OC(=O)NCCCC[C@H](N)C(=O)O)[C@@H]1c2c(cnn2C)[C@@H]2CN1C(=O)N2OS(=O)(=O)O (racemic) [Example 31] | ** (** represents a k(on) of 100 to 10,000 M^−1 · s^−1) | *** (*** represents a k(on) > 10,000 M^−1 · s^−1) |
| 8 to 16 | 8 to 16 | < 8 | < 8 | CN/C(=N\OC(=O)NCCN)[C@@H]1c2c(cnn2C)[C@@H]2CN1C(=O)N2OS(=O)(=O)O (racemic) [Example 18, (4R,8S)-8-((Z)—N′-(((2-aminoethyl)carbamoyl)oxy)-N-methylcarbamimidoyl)-1-methyl-6-oxo-4,8-dihydro-1H-4,7-methanopyrazolo[3,4-e][1,3]diazepin-5(6H)-yl hydrogen sulfate] | ** (** represents a k(on) of 100 to 10,000 M^−1 · s^−1) | *** (*** represents a k(on) > 10,000 M^−1 · s^−1) |
| 8 to 16 (≈ 17.4 to 34.7 µM) | > 16 | < 8 | 8 to 16 (≈ 17.4 to 34.7 µM) | CN/C(=N\OC(=O)NCCCCN)[C@@H]1c2c(cnn2C)[C@@H]2CN1C(=O)N2OS(=O)(=O)O (racemic) [Example 19] | ** (** represents a k(on) of 100 to 10,000 M^−1 · s^−1) | *** (*** represents a k(on) > 10,000 M^−1 · s^−1) |
| > 16 | 8 to 16 (≈ 16 to 32 µM) | 8 to 16 (≈ 16 to 32 µM) | 8 to 16 (≈ 16 to 32 µM) | CN/C(=N\OCC(=O)NOS(=O)(=O)O)[C@@H]1c2c(cnn2C)[C@@H]2CN1C(=O)N2OS(=O)(=O)O [Example 73, pyridium ((2-((((Z)-((4R,8S)-1-methyl-6-oxo-5-(sulfooxy)-4,5,6,8-tetrahydro-1H-4,7-methanopyrazolo[3,4-e][1,3]diazepin-8-yl)(methylamino)methylene)amino)oxy)acetamido)oxy)sulfonic acid] | ** (** represents a k(on) of 100 to 10,000 M^−1 · s^−1) | *** (*** represents a k(on) > 10,000 M^−1 · s^−1) |
| > 16 | > 16 | > 16 | 8 to 16 | CN/C(=N\OC(=O)NCCNC(C)=O)[C@@H]1c2c(cnn2C)[C@@H]2CN1C(=O)N2OS(=O)(=O)O [Example 44, (4R,8S)-8-((Z)—N′-(((2-acetamidoethyl)carbamoyl)oxy)-N-methylcarbamimidoyl)-1-methyl-6-oxo-4,8-dihydro-1H-4,7-methanopyrazolo[3,4-e][1,3]diazepin-5(6H)-yl hydrogen sulfate] | ** (** represents a k(on) of 100 to 10,000 M^−1 · s^−1) | *** (*** represents a k(on) > 10,000 M^−1 · s^−1) |

| SMILES | MIC (A. baumannii (ARC3495)) [mg/L] | MIC [1] [µg/mL] | MIC (P. aeruginosa WT (PAO1)) [µg/mL] | MIC (E. coli (ATCC25922)) [mg/L] | PBP1a acylation rate, k(on) (M^−1 · s^−1) (P. aeruginosa PBP1a) | PBP3 acylation rate, k(on) (M^−1 · s^−1) (P. aeruginosa PBP3) |
| --- | --- | --- | --- | --- | --- | --- |
| CN/C(=N\OC(=O)NOC)[C@@H]1c2c(cnn2C)[C@@H]2CN1C(=O)N2OS(=O)(=O)O (racemic) [Example 33] | 8 to 16 (≈ 19.1 to 38.2 µM) | > 16 | 8 to 16 (≈ 19.1 to 38.2 µM) | 8 to 16 (≈ 19.1 to 38.2 µM) | ** (** represents a k(on) of 100 to 10,000 M^−1 · s^−1) | *** (*** represents a k(on) > 10,000 M^−1 · s^−1) |
| CN/C(=N\OC(=O)N(C)C)[C@@H]1c2c(cnn2C)[C@@H]2CN1C(=O)N2OS(=O)(=O)O (racemic) [Example 21] | > 16 | > 16 | > 16 | < 8 | ** (** represents a k(on) of 100 to 10,000 M^−1 · s^−1) | *** (*** represents a k(on) > 10,000 M^−1 · s^−1) |
